Experimental data as given in patent US12281122B1, “PI3K inhibitors” (Cogent Biosciences, Inc., priority 2023, dated 2025).
pIC50: −log10 of the molar value.

Columns and labels:
[1] = system: SKBR3 (PI3Kα-Wild Type) cell line; test: HTRF phospho-AKT(S473) cell assay in SKBR3 cells; format: cell-based, human; settings: Homo sapiens, SK-BR-3; HTRF phospho-AKT(S473), SKBR3 (PI3Kα-Wild Type) cells, 2 hours compound incubation, PDGF-BB stimulated
Method in brief: (§1)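 HTRF read-out of phospho-AKT(S473) in lysates gave IC50 values after 2 h compound exposure at 37° C. Dose series was 12 points at 1:3, topping at 5 μM for T47D and 10 μM for SKBR3. Only SKBR3 received 70 ng/ml PDGF-BB during the last 15 minutes.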

[2] = system: T47D (PI3Kα-H1047R) cell line; test: HTRF phospho-AKT(S473) cell assay in T47D cells; format: cell-based, human; settings: Homo sapiens; HTRF phospho-AKT(S473), T47D (PI3Kα-H1047R) cells, 2 hours compound incubation
Method in brief: as §1

Row | Compound | pIC50 [1] | pIC50 [2]
1 | Cc1cc([C@@H](C)Nc2ccc(Cl)nc2C(=O)NS(C)(=O)=O)c2nc(N3C[C@@H]4[C@H](C3)[C@H]4c3ncn(C(C)C)n3)n(C)c(=O)c2c1 [Compound 551, 6-chloro-3-(((R)-1-(2-((1R,5S,6R)-6-(1-isopropyl-1H-1,2,4-triazol-3-yl)-3-azabicyclo[3.1.0]hexan-3-yl)-3,6-dimethyl-4-oxo-3,4-dihydroquinazolin-8-yl)ethyl)amino)-N-(methylsulfonyl) picolinamide] | ≤ 5.30 | > 6.60
2 | Cc1cc([C@@H](C)Nc2ccc(Cl)nc2C(=O)NS(C)(=O)=O)c2nc(N3CCC(C)(c4cc[nH]n4)CC3)n(C)c(=O)c2c1 [Compound 552, (R)-6-chloro-3-((1-(3,6-dimethyl-2-(4-methyl-4-(1H-pyrazol-3-yl)piperidin-1-yl)-4-oxo-3,4-dihydroquinazolin-8-yl)ethyl)amino)-N-(methylsulfonyl) picolinamide] | ≤ 5.30 | 6.30 to 6.60
3 | COc1cc(N2CCN(c3nc4c([C@@H](C)Nc5ccc(Cl)nc5C(=O)NS(C)(=O)=O)cc(C)cc4c(=O)n3C)CC2)ccn1 [Compound 554, (R)-6-chloro-3-((1-(2-(4-(2-methoxypyridin-4-yl)piperazin-1-yl)-3,6-dimethyl-4-oxo-3,4-dihydroquinazolin-8-yl)ethyl)amino)-N-(methylsulfonyl) picolinamide] | 5.30 to 6.00 | > 6.60
4 | COc1ncc(N2CCN(c3nc4c([C@@H](C)Nc5ccc(Cl)nc5C(=O)NS(C)(=O)=O)cc(C)cc4c(=O)n3C)CC2)cn1 [Compound 555, (R)-6-chloro-3-((1-(2-(4-(2-methoxypyrimidin-5-yl)piperazin-1-yl)-3,6-dimethyl-4-oxo-3,4-dihydroquinazolin-8-yl)ethyl)amino)-N-(methylsulfonyl) picolinamide] | 5.30 to 6.00 | > 6.60
5 | Cc1cc([C@@H](C)Nc2ccc(Cl)nc2C(=O)NS(C)(=O)=O)c2nc(N3CCC(c4cc5n(n4)CCO5)CC3)n(C)c(=O)c2c1 [Compound 556, (R)-6-chloro-3-((1-(2-(4-(2,3-dihydropyrazolo[5,1-b]oxazol-6-yl)piperidin-1-yl)-3,6-dimethyl-4-oxo-3,4-dihydroquinazolin-8-yl)ethyl)amino)-N-(methylsulfonyl) picolinamide] | 5.30 to 6.00 | > 6.60
6 | Cc1cc([C@@H](C)Nc2ccc(Cl)nc2C(=O)NS(C)(=O)=O)c2nc(N3CCC(c4nnc(C)o4)CC3)n(C)c(=O)c2c1 [Compound 557, (R)-6-chloro-3-((1-(3,6-dimethyl-2-(4-(5-methyl-1,3,4-oxadiazol-2-yl)piperidin-1-yl)-4-oxo-3,4-dihydroquinazolin-8-yl)ethyl)amino)-N-(methylsulfonyl) picolinamide] | 5.30 to 6.00 | 6.30 to 6.60
7 | Cc1cc([C@@H](C)Nc2ccc(Cl)nc2C(=O)NS(C)(=O)=O)c2nc(N3CCC(c4nnc(C)s4)CC3)n(C)c(=O)c2c1 [Compound 558, (R)-6-chloro-3-((1-(3,6-dimethyl-2-(4-(5-methyl-1,3,4-thiadiazol-2-yl)piperidin-1-yl)-4-oxo-3,4-dihydroquinazolin-8-yl)ethyl)amino)-N-(methylsulfonyl) picolinamide] | 5.30 to 6.00 | > 6.60
8 | C[C@@H](Nc1ccc(Cl)nc1C(=O)NS(C)(=O)=O)c1cc(F)cc2c(=O)n(C)c(N3CC[C@@H](Oc4cnn(C)c4)C3)nc12 [Compound 560, 6-chloro-3-(((R)-1-(6-fluoro-3-methyl-2-((R)-3-((1-methyl-1H-pyrazol-4-yl)oxy)pyrrolidin-1-yl)-4-oxo-3,4-dihydroquinazolin-8-yl)ethyl)amino)-N-(methylsulfonyl) picolinamide] | 5.30 to 6.00 | > 6.60
9 | Cc1cc([C@@H](C)Nc2ccc(Cl)nc2C(=O)NS(C)(=O)=O)c2nc(N3CCC(C4=NN(C)C(=O)C4(F)F)CC3)n(C)c(=O)c2c1 [Compound 561, (R)-6-chloro-3-((1-(2-(4-(4,4-difluoro-1-methyl-5-oxo-4,5-dihydro-1H-pyrazol-3-yl)piperidin-1-yl)-3,6-dimethyl-4-oxo-3,4-dihydroquinazolin-8-yl)ethyl)amino)-N-(methylsulfonyl) picolinamide] | ≤ 5.30 | 6.30 to 6.60
10 | COc1nc(C2CCN(c3nc4c([C@@H](C)Nc5ccc(Cl)nc5C(=O)NS(C)(=O)=O)cc(C)cc4c(=O)n3C)CC2)ncc1C [Compound 562, (R)-6-chloro-3-((1-(2-(4-(4-methoxy-5-methylpyrimidin-2-yl)piperidin-1-yl)-3,6-dimethyl-4-oxo-3,4-dihydroquinazolin-8-yl)ethyl)amino)-N-(methylsulfonyl) picolinamide] | ≤ 5.30 | 6.30 to 6.60
11 | Cc1cc([C@@H](C)Nc2ccc(Cl)nc2C(=O)NS(C)(=O)=O)c2nc(N3C[C@@H]4[C@H](C3)[C@H]4c3nn(C4CC4)cc3F)n(C)c(=O)c2c1 [Compound 569, 6-chloro-3-(((R)-1-(2-((1R,5S,6R)-6-(1-cyclopropyl-4-fluoro-1H-pyrazol-3-yl)-3-azabicyclo[3.1.0]hexan-3-yl)-3,6-dimethyl-4-oxo-3,4-dihydroquinazolin-8-yl)ethyl)amino)-N-(methylsulfonyl) picolinamide] | ≤ 5.30 | 6.30 to 6.60
12 | Cc1cc([C@@H](C)Nc2ccc(Cl)nc2C(=O)NS(C)(=O)=O)c2nc(N3C[C@@H]4[C@H](C3)[C@H]4c3c(F)cnn3C3CC3)n(C)c(=O)c2c1 [Compound 570, 6-chloro-3-(((R)-1-(2-((1R,5S,6R)-6-(1-cyclopropyl-4-fluoro-1H-pyrazol-5-yl)-3-azabicyclo[3.1.0]hexan-3-yl)-3,6-dimethyl-4-oxo-3,4-dihydroquinazolin-8-yl)ethyl)amino)-N-(methylsulfonyl) picolinamide] | ≤ 5.30 | > 6.60

Continued, values first:

Row | pIC50 [1] | pIC50 [2] | Compound
13 | 5.30 to 6.00 | > 6.60 | Cc1cc([C@@H](C)Nc2ccc(Cl)nc2C(=O)NS(C)(=O)=O)c2nc(N3CCN(c4nccnc4C)CC3)n(C)c(=O)c2c1 [Compound 553, (R)-6-chloro-3-((1-(3,6-dimethyl-2-(4-(3-methylpyrazin-2-yl)piperazin-1-yl)-4-oxo-3,4-dihydroquinazolin-8-yl)ethyl)amino)-N-(methylsulfonyl) picolinamide]
14 | ≤ 5.30 | 6.30 to 6.60 | Cc1cc([C@@H](C)Nc2ccc(Cl)nc2C(=O)NS(C)(=O)=O)c2nc(N3C[C@@H]4[C@H](C3)[C@H]4c3cnn(C4CC4)n3)n(C)c(=O)c2c1 [Compound 559, 6-chloro-3-(((R)-1-(2-((1R,5S,6R)-6-(2-cyclopropyl-2H-1,2,3-triazol-4-yl)-3-azabicyclo[3.1.0]hexan-3-yl)-3,6-dimethyl-4-oxo-3,4-dihydroquinazolin-8-yl)ethyl)amino)-N-(methylsulfonyl) picolinamide]
15 | ≤ 5.30 | 6.30 to 6.60 | COc1nccnc1C1CCN(c2nc3c([C@@H](C)Nc4ccc(Cl)nc4C(=O)NS(C)(=O)=O)cc(C)cc3c(=O)n2C)CC1 [Compound 563, (R)-6-chloro-3-((1-(2-(4-(3-methoxypyrazin-2-yl)piperidin-1-yl)-3,6-dimethyl-4-oxo-3,4-dihydroquinazolin-8-yl)ethyl)amino)-N-(methylsulfonyl) picolinamide]
16 | ≤ 5.30 | 6.30 to 6.60 | Cc1cnc(N2C[C@@H]3C[C@H]2CN3c2nc3c([C@@H](C)Nc4ccc(Cl)nc4C(=O)NS(C)(=O)=O)cc(C)cc3c(=O)n2C)nc1 [Compound 564, 6-chloro-3-(((R)-1-(3,6-dimethyl-2-((1S,4S)-5-(5-methylpyrimidin-2-yl)-2,5-diazabicyclo[2.2.1]heptan-2-yl)-4-oxo-3,4-dihydroquinazolin-8-yl)ethyl)amino)-N-(methylsulfonyl) picolinamide]
17 | ≤ 5.30 | 6.30 to 6.60 | Cc1cnc(N2C[C@H]3C[C@@H]2CN3c2nc3c([C@@H](C)Nc4ccc(Cl)nc4C(=O)NS(C)(=O)=O)cc(C)cc3c(=O)n2C)nc1 [Compound 565, 6-chloro-3-(((R)-1-(3,6-dimethyl-2-((1R,4R)-5-(5-methylpyrimidin-2-yl)-2,5-diazabicyclo[2.2.1]heptan-2-yl)-4-oxo-3,4-dihydroquinazolin-8-yl)ethyl)amino)-N-(methylsulfonyl) picolinamide]
18 | 5.30 to 6.00 | 6.30 to 6.60 | Cc1cc([C@@H](C)Nc2ccc(Cl)nc2C(=O)NS(C)(=O)=O)c2nc(N3C[C@@H]4[C@H](C3)[C@H]4n3cnc(C)n3)n(C)c(=O)c2c1 [Compound 566, 6-chloro-3-(((R)-1-(3,6-dimethyl-2-((1R,5S,6S)-6-(3-methyl-1H-1,2,4-triazol-1-yl)-3-azabicyclo[3.1.0]hexan-3-yl)-4-oxo-3,4-dihydroquinazolin-8-yl)ethyl)amino)-N-(methylsulfonyl) picolinamide]
19 | ≤ 5.30 | 6.30 to 6.60 | Cc1cc([C@@H](C)Nc2ccc(Cl)nc2C(=O)NS(C)(=O)=O)c2nc(N3C[C@@H]4[C@H](C3)[C@H]4c3cc(C)n(C4CC4)n3)n(C)c(=O)c2c1 [Compound 567, 6-chloro-3-(((R)-1-(2-((1R,5S,6R)-6-(1-cyclopropyl-5-methyl-1H-pyrazol-3-yl)-3-azabicyclo[3.1.0]hexan-3-yl)-3,6-dimethyl-4-oxo-3,4-dihydroquinazolin-8-yl)ethyl)amino)-N-(methylsulfonyl) picolinamide]
20 | 5.30 to 6.00 | 6.30 to 6.60 | Cc1cc([C@@H](C)Nc2ccc(Cl)nc2C(=O)NS(C)(=O)=O)c2nc(N3C[C@@H]4[C@H](C3)[C@H]4c3cc(C)nn3C3CC3)n(C)c(=O)c2c1 [Compound 568, 6-chloro-3-(((R)-1-(2-((1R,5S,6R)-6-(1-cyclopropyl-3-methyl-1H-pyrazol-5-yl)-3-azabicyclo[3.1.0]hexan-3-yl)-3,6-dimethyl-4-oxo-3,4-dihydroquinazolin-8-yl)ethyl)amino)-N-(methylsulfonyl) picolinamide]
